Results taken from ChEMBL document CHEMBL5380835, “Discovery of Clinically Used Octenidine as NRAS Repressor That Effectively Inhibits NRAS-Mutant Melanoma” (J Med Chem, 2023).
pIC50, pKd: −log10 of the molar value. One block for each compound: values may come before it. Activity calls are given as the source filed them. No cut-off for these calls is given here.

Tests used:
[1] = Binding affinity to 5'-FAM-labeled to NRAS RNA G-quadruplex 5'-r(UGUGGGAGGGGCGGGUCUGGG)-3' (unknown origin) assessed as dissociation constant by fluorescence quenching assay
SK-MEL-2 [2] = experiment: Cytotoxicity against human SK-MEL-2 cells expressing NRAS mutant assessed as cell growth inhibition incubated for 48 hrs by MTT assay; type: functional, cell-based; conditions: SK-MEL-2, 48 h
SK-MEL-2 [3] = experiment: Synergistic cytotoxicity against human SK-MEL-2 cells expressing NRAS mutant assessed as combination index measured for 48 hrs in presence of MEK-162 by MTT assay; type: functional
SK-MEL-2 [4] = experiment: Synergistic cytotoxicity against human SK-MEL-2 cells expressing NRAS mutant assessed as combination index measured for 48 hrs in presence of LY3214996 by MTT assay; type: functional
SK-MEL-2 [5] = experiment: Antiproliferative activity against human SK-MEL-2 cells assessed as inhibition of colony formation at 1.5 uM measured after 10 days by crystal violet staining based assay; type: functional, cell-based; conditions: time 10.0 day
SK-MEL-2 [6] = experiment: Synergistic cytotoxicity against human SK-MEL-2 cells expressing NRAS mutant assessed as combination index measured for 48 hrs in presence of MK2206 by MTT assay; type: functional
SK-MEL-2 [7] = experiment: Synergistic cytotoxicity against human SK-MEL-2 cells expressing NRAS mutant assessed as combination index measured for 48 hrs in presence of Rapamycin by MTT assay; type: functional
SK-MEL-2 [8] = experiment: Effect on NRAS protein translation in human SK-MEL-2 cells at 1/2 times IC50 incubated for 24 hrs by Western blot analysis; type: functional, cell-based
SK-MEL-2 [9] = experiment: Cytotoxicity against human SK-MEL-2 cells assessed as cell growth inhibition incubated for 24 hrs by MTT assay; type: functional, cell-based; conditions: SK-MEL-2, 24 h
SK-MEL-2 [10] = experiment: Upregulation of NRAS mRNA level in human SK-MEL-2 cells at 1/2 times IC50 incubated for 24 hrs by RT-qPCR analysis; type: functional, cell-based

SMILES: CCCCCNc1cc[n+](CCCC[n+]2ccc(NCCCCC)cc2)cc1
- pKd [1]: 5.78
- pIC50 (SK-MEL-2 [2]): < 4.60

SMILES: NC1(c2ccc(-c3nc4ccn5c(=O)[nH]nc5c4cc3-c3ccccc3)cc2)CCC1 [MK-2206]
- CI (SK-MEL-2 [3]): 0.5
- CI (SK-MEL-2 [4]): 0.5

SMILES: Cn1nccc1Nc1nccc(-c2cc3c(s2)C(C)(C)N(CCN2CCOCC2)C3=O)n1 [TEMUTERKIB]
- inhibition (SK-MEL-2 [5]): Active
- CI (SK-MEL-2 [6]): 0.5
- CI (SK-MEL-2 [7]): 0.5

SMILES: CO[C@H]1C[C@@H]2CC[C@@H](C)[C@@](O)(O2)C(=O)C(=O)N2CCCC[C@H]2C(=O)O[C@H]([C@H](C)C[C@@H]2CC[C@@H](O)[C@H](OC)C2)CC(=O)[C@H](C)/C=C(\C)[C@@H](O)[C@@H](OC)C(=O)[C@H](C)C[C@H](C)/C=C/C=C/C=C/1C [SIROLIMUS]
- inhibition (SK-MEL-2 [5]): Active
- CI (SK-MEL-2 [3]): 0.5
- CI (SK-MEL-2 [4]): 0.5

SMILES: CN(C)c1ccc(C(=C2C=CC(=[N+](C)C)C=C2)c2ccc(N(C)C)cc2)cc1 [GENTIAN VIOLET]
- Activity (SK-MEL-2 [8]): inactive
- pIC50 (SK-MEL-2 [9]): 5.54
- Activity (SK-MEL-2 [10]): Active
- pIC50 (SK-MEL-2 [2]): 5.87

Now from value to compound, other results behind:

- pKd [1]: 5.76
SMILES: CCCNc1cc[n+](CCCCCCCCCC[n+]2ccc(NCCC)cc2)cc1
- pIC50 (SK-MEL-2 [2]): 5.08

- pKd [1]: 6.12
SMILES: CCCCCCNc1cc[n+](CCCC[n+]2ccc(NCCCCCC)cc2)cc1
- pIC50 (SK-MEL-2 [2]): 4.76

- pKd [1]: 5.52
SMILES: CCCNc1cc[n+](CCCCCC[n+]2ccc(NCCC)cc2)cc1

- pKd [1]: 6.54
SMILES: CCCCCCNc1cc[n+](CCCCCCCCCC[n+]2ccc(NCCCCCC)cc2)cc1
- pIC50 (SK-MEL-2 [2]): 6.04
